Reference: patent EP1135374B9, “BENZIMIDAZOLE COMPOUNDS THAT ARE VITRONECTIN RECEPTOR ANTAGONISTS” (SCHERING CORPORATION, priority 1998, dated 2000)

Assays:
[1] = target: T1, αvβ3 receptor (purified from human placenta) (Homo sapiens, UniProt P05106+P06756); assay: competition radioligand binding assay, 125I-echistatin to αvβ3 receptor; conditions: αvβ3, inhibition of specific 125I-echistatin binding
T1 construct: αvβ3 receptor (purified from human placenta); from tissue; host or cells: human placenta
Procedure: The following assay procedure, which is a competition radioligand binding assay, was carried out to determine the activity of the foregoing compounds as αvβ3 antagonists. The competitive assay procedure described in Kumar, et. al., "Biochemical Characterization Of The Binding Of Echistatin To Integrin αvβ3 Receptor", Journal Of Pharmacology And Experimental Therapeutics, Vol. 283, No. 2, pp. 843-853 (1997) was employed. Thus, binding of ^125I-echistatin (radiolabeled by the chloramine-T method to a specific activity of 2000 Ci/mmol (Amersham, Chicago, Il.)) to αvβ3 receptor (purified from human placenta), both prepared as described in Kumar, et al., was competed by the compounds prepared in the foregoing examples. Purified αvβ3 receptor was coated onto Microlite-2 plates at a concentration of 50 ng/well. ^125I-echistatin was added to the wells to a final concentration of 0.05 nM in binding buffer (50 µl/well) in the presence of the competing test compound. The competing test compounds were employed at serially diluted concentrations ranging from 1 pM to 100 nM. After a 3 hour incubation at room temperature, the wells were washed, and radioactivity, reflecting binding by ^125 I-echistatin to αvβ3 receptors, was determined with Top Count (Packard). Each data point is an average of values from triplicate wells.
Specific binding of ^125I-echistatin was calculated as the difference between the amount of ^125I-echistatin bound in the absence (total binding) and the amount of ^125I-echistatin bound in the presence of a 200-fold molar excess of unlabeled echistatin (nonspecific binding). The efficacy of the test compounds for inhibiting specific binding of ^125I-echistatin to αvβ3 receptors was determined by plotting a graph of specific binding (y-axis) as a function of test compound concentration (x-axis). The concentration of test compound required to inhibit 50% of the specific binding (IC50) was determined from the plot. The IC50 may be directly converted mathematically to Ki, which is a measure of the receptor binding affinity of the compounds under the defined assay conditions.

purified αllbβ3 receptor = purified αllbβ3 receptor (Homo sapiens, UniProt P05106+P08514); assay: similar competitive binding assay with 125I-echistatin on αllbβ3 receptor, used for the specificity index; conditions: specificity index IC50 αllbβ3/ IC50 αvβ3; for Specificity α11bβ3 / αvβ3: Table 13
Procedure: To measure the relative affinity of the test compounds for αvβ3 receptors versus affinity for αllbβ3 receptors, similar competitive assays were carried out using purified αllbβ3 receptor and ^125I-echistatin (iodinated using the lactoperoxidase method). The specificity index, which is a measure of the relative binding affinity for αvβ3, versus αllbβ3, may be determined by dividing the IC50 value for αllbβ3 by the IC50 value for αvβ3.

For `CCOC(=O)[C@H](CC(C)C)NC(=O)N(Cc1ccc(C(=O)NC[C@H](NC(=O)OCc2ccccc2)C(=O)O)cc1)Cc1nc2ccccc2[nH]1` [Example 5-53], the IC50 ([1]; Table 10) was 3.8 nM and the “SPECIFICITY αIIbβ3 / αvβ3” value (purified αllbβ3 receptor; Table 10) was 483.

`CCCCOC(=O)N[C@@H](CNC(=O)c1ccc(CN(Cc2nc3ccccc3[nH]2)C(=O)Nc2ccccc2)cc1)C(=O)O` [Example 5-83] was tested, and the IC50 ([1]; Table 16) was 1.8 nM and the “Specificity αllbβ3 / αvβ3” value (purified αllbβ3 receptor; Table 16) was 1689.

For `CCOC(=O)[C@H](Cc1ccccc1)NC(=O)N(Cc1ccc(C(=O)NC[C@H](NC(=O)OCc2ccccc2)C(=O)O)cc1)Cc1nc2ccccc2[nH]1` [Example 5-52], the IC50 ([1]; Table 10) was 4 nM and the “SPECIFICITY αIIbβ3 / αvβ3” value (purified αllbβ3 receptor; Table 10) was 448.

With `O=C(N[C@@H](CNC(=O)c1ccc(CN(Cc2nc3ccccc3[nH]2)C(=O)Nc2ccc(Cl)cc2)cc1)C(=O)O)OCc1ccccc1` [Example 5-35] the IC50 ([1]; Table 10) was 8.1 nM and the “SPECIFICITY αIIbβ3 / αvβ3” value (purified αllbβ3 receptor; Table 10) was 240.

In the case of `CC(=O)N(Cc1ccc(C(=O)NC[C@H](NC(=O)OC(C)(C)C)C(=O)O)cc1)Cc1nc2ccccc2[nH]1` [Example 5-61], the IC50 ([1]; Table 12) is reported as 17 nM and the “Specificity αllbβ3 / αvβ3” value (purified αllbβ3 receptor; Table 12) is reported as 324.

For `CCOC(=O)[C@H](C)NC(=O)N(Cc1ccc(C(=O)NC[C@H](NC(=O)OCc2ccccc2)C(=O)O)cc1)Cc1nc2ccccc2[nH]1` [Example 5-50], the IC50 ([1]; Table 10) was 3 nM and the “SPECIFICITY αIIbβ3 / αvβ3” value (purified αllbβ3 receptor; Table 10) was 805.

In the case of `O=C(N[C@@H](CNC(=O)c1ccc(CN(Cc2nc3ccccc3[nH]2)C(=S)NC2CCCCC2)cc1)C(=O)O)OCc1ccccc1` [Example 5-55], the IC50 ([1]; Table 10) is reported as 2.5 nM and the “SPECIFICITY αIIbβ3 / αvβ3” value (purified αllbβ3 receptor; Table 10) is reported as 620.

In the case of `O=C(N[C@@H](CNC(=O)c1ccc(CN(Cc2nc3ccccc3[nH]2)C(=O)NC2CCCCC2)cc1)C(=O)O)OCc1ccccc1` [Example 5-28], the IC50 ([1]; Table 10) is reported as 0.65 nM and the “SPECIFICITY αIIbβ3 / αvβ3” value (purified αllbβ3 receptor; Table 10) is reported as 1136.

`CCCCOC(=O)N[C@@H](CNC(=O)c1ccc(CN(Cc2nc3ccccc3[nH]2)C(=O)NC2CCCCC2)cc1)C(=O)O` [Example 5-82] was tested, and the IC50 ([1]; Table 16) was 2.2 nM and the “Specificity αllbβ3 / αvβ3” value (purified αllbβ3 receptor; Table 16) was 1259.

`CCCCOC(=O)N[C@@H](CNC(=O)c1ccc(CN(Cc2nc3ccccc3[nH]2)C(=O)NC(C)C)cc1)C(=O)O` [Example 5-84] was tested, and the IC50 ([1]; Table 16) was 3.6 nM and the “Specificity αllbβ3 / αvβ3” value (purified αllbβ3 receptor; Table 16) was 712.

In the case of `CCCCOC(=O)N[C@@H](CNC(=O)c1ccc(CN(Cc2nc3ccccc3[nH]2)C(=O)N[C@@H](C)C(=O)OCC)cc1)C(=O)O` [Example 5-89], the IC50 ([1]; Table 16) is reported as 3.3 nM and the “Specificity αllbβ3 / αvβ3” value (purified αllbβ3 receptor; Table 16) is reported as 1094.

In the case of `CN(Cc1ccc(C(=O)NC[C@H](NC(=O)OCc2ccccc2)C(=O)O)cc1)Cc1nc2ccccc2[nH]1` [Example 5-33], the IC50 ([1]; Table 10) is reported as 17 nM and the “SPECIFICITY αIIbβ3 / αvβ3” value (purified αllbβ3 receptor; Table 10) is reported as 128.

With `CCOCC(=O)N(Cc1ccc(C(=O)NC[C@H](NC(=O)OCc2ccccc2)C(=O)O)cc1)Cc1nc2ccccc2[nH]1` [Example 5-26] the IC50 ([1]; Table 10) was 3.5 nM and the “SPECIFICITY αIIbβ3 / αvβ3” value (purified αllbβ3 receptor; Table 10) was 91.

With `O=C(N[C@@H](CNC(=O)c1ccc(CN(Cc2nc3ccccc3[nH]2)C(=O)Nc2ccc(F)cc2)cc1)C(=O)O)OCc1ccccc1` [Example 5-49] the IC50 ([1]; Table 10) was 4.2 nM and the “SPECIFICITY αIIbβ3 / αvβ3” value (purified αllbβ3 receptor; Table 10) was 504.

In the case of `CSCC(=O)N(Cc1ccc(C(=O)NC[C@H](NC(=O)OCc2ccccc2)C(=O)O)cc1)Cc1nc2ccccc2[nH]1` [Example 5-23], the IC50 ([1]; Table 10) is reported as 5.5 nM and the “SPECIFICITY αIIbβ3 / αvβ3” value (purified αllbβ3 receptor; Table 10) is reported as 22.

`O=C(O)CC(NC(=O)c1ccc(CN(Cc2nc3ccccc3[nH]2)C(=O)CCc2ccccc2)cc1)c1ccccc1` (centres unmarked) [Example 5-68] was tested, and the IC50 ([1]; Table 13) was 6630 nM and the “Specificity α11bβ3 / αvβ3” value (purified αllbβ3 receptor) was 0.4.

For `COCC(=O)N(Cc1ccc(C(=O)NC(CC(=O)O)c2ccccc2)cc1)Cc1nc2ccccc2[nH]1` (centres unmarked) [Example 5-67], the IC50 ([1]; Table 13) was 7370 nM and the “Specificity α11bβ3 / αvβ3” value (purified αllbβ3 receptor) was 0.5.

In the case of `CCCCOC(=O)N[C@@H](CNC(=O)c1ccc(CN(Cc2nc3ccccc3[nH]2)C(=O)Nc2ccc(C(=O)OCC)cc2)cc1)C(=O)O` [Example 5-91], the IC50 ([1]; Table 16) is reported as 2.8 nM and the “Specificity αllbβ3 / αvβ3” value (purified αllbβ3 receptor; Table 16) is reported as 1183.

For `O=C(N[C@H](CNC(=O)c1ccc(CNCc2nc3ccccc3[nH]2)cc1)C(=O)O)OCc1ccccc1` [Example 5-57], the IC50 ([1]; Table 11) was 1290 nM and the “Specificity αllbβ3 / αvβ3” value (purified αllbβ3 receptor; Table 11) was 1.43.

`O=C(N[C@@H](CNC(=O)c1ccc(CN(Cc2nc3ccccc3[nH]2)C(=O)COc2ccccc2)cc1)C(=O)O)OCc1ccccc1` [Example 5-19] was tested, and the IC50 ([1]; Table 10) was 8.9 nM and the “SPECIFICITY αIIbβ3 / αvβ3” value (purified αllbβ3 receptor; Table 10) was 34.

In the case of `CCOC(=O)CCC(=O)N(Cc1ccc(C(=O)NC[C@H](NC(=O)OCc2ccccc2)C(=O)O)cc1)Cc1nc2ccccc2[nH]1` [Example 5-17], the IC50 ([1]; Table 10) is reported as 4.6 nM and the “SPECIFICITY αIIbβ3 / αvβ3” value (purified αllbβ3 receptor; Table 10) is reported as 76.

In the case of `O=C(N[C@@H](CNC(=O)c1ccc(CN(Cc2nc3ccccc3[nH]2)C(=S)NCCc2ccccc2)cc1)C(=O)O)OCc1ccccc1` [Example 5-31], the IC50 ([1]; Table 10) is reported as 6 nM and the “SPECIFICITY αIIbβ3 / αvβ3” value (purified αllbβ3 receptor; Table 10) is reported as 80.

With `COCC(=O)N(Cc1ccc(C(=O)NC[C@H](NC(=O)OCc2ccccc2)C(=O)O)cc1)C(C)c1nc2ccccc2[nH]1` (some centres unmarked) [Example 5-77] the IC50 ([1]; Table 15) was 49 nM and the “SPECIFICITY αIIbβ3 / αvβ3” value (purified αllbβ3 receptor; Table 15) was 12.4.

In the case of `CCCNC(=O)N(Cc1ccc(C(=O)NC[C@H](NC(=O)OCc2ccccc2)C(=O)O)cc1)Cc1nc2ccccc2[nH]1` [Example 5-39], the IC50 ([1]; Table 10) is reported as 3.1 nM and the “SPECIFICITY αIIbβ3 / αvβ3” value (purified αllbβ3 receptor; Table 10) is reported as 223.

With `CCNC(=O)N(Cc1ccc(C(=O)NC[C@H](NC(=O)OCc2ccccc2)C(=O)O)cc1)Cc1nc2ccccc2[nH]1` [Example 5-43] the IC50 ([1]; Table 10) was 2.2 nM and the “SPECIFICITY αIIbβ3 / αvβ3” value (purified αllbβ3 receptor; Table 10) was 585.

With `O=C(N[C@@H](CNC(=O)c1ccc(CN(Cc2nc3ccccc3[nH]2)C(=O)Nc2cccc3ccccc23)cc1)C(=O)O)OCc1ccccc1` [Example 5-37] the IC50 ([1]; Table 10) was 5.3 nM and the “SPECIFICITY αIIbβ3 / αvβ3” value (purified αllbβ3 receptor; Table 10) was 203.

With `COCC(=O)N(Cc1ccc(C(=O)NC[C@@H](NC(=O)OCc2ccccc2)C(=O)O)cc1)Cc1nc2ccccc2[nH]1` [Example 5-58] the IC50 ([1]; Table 11) was 118 nM and the “Specificity αllbβ3 / αvβ3” value (purified αllbβ3 receptor; Table 11) was 46.

In the case of `CCOC(=O)c1ccc(NC(=O)N(Cc2ccc(C(=O)NC[C@H](NC(=O)OCc3ccccc3)C(=O)O)cc2)Cc2nc3ccccc3[nH]2)cc1` [Example 5-47], the IC50 ([1]; Table 10) is reported as 2.2 nM and the “SPECIFICITY αIIbβ3 / αvβ3” value (purified αllbβ3 receptor; Table 10) is reported as 1252.

In the case of `COc1ccc(NC(=S)N(Cc2ccc(C(=O)NC[C@H](NC(=O)OCc3ccccc3)C(=O)O)cc2)Cc2nc3ccccc3[nH]2)cc1` [Example 5-46], the IC50 ([1]; Table 10) is reported as 2.7 nM and the “SPECIFICITY αIIbβ3 / αvβ3” value (purified αllbβ3 receptor; Table 10) is reported as 1065.

With `O=C(N[C@@H](CNC(=O)c1ccc(CN(Cc2nc3ccccc3[nH]2)C(=O)NS(=O)(=O)c2ccc(Cl)cc2)cc1)C(=O)O)OCc1ccccc1` [Example 5-44] the IC50 ([1]; Table 10) was 19.6 nM and the “SPECIFICITY αIIbβ3 / αvβ3” value (purified αllbβ3 receptor; Table 10) was 66.3.

In the case of `O=C(N[C@@H](CNC(=O)c1ccc(CN(Cc2nc3ccccc3[nH]2)C(=O)Nc2ccc(-c3ccccc3)cc2)cc1)C(=O)O)OCc1ccccc1` [Example 5-38], the IC50 ([1]; Table 10) is reported as 13.6 nM and the “SPECIFICITY αIIbβ3 / αvβ3” value (purified αllbβ3 receptor; Table 10) is reported as 49.
